This data set in a line: recombinant UMI read abundance after kanamycin selection (control-corrected) (log10(CPM+1)); higher = more efficient recombination; extreme values may be limits of the assay; sequences stand for … in AGTGCAGAGAAAATCGGCCAGTTTTCTCTGCCTGCAGTCCGCATGCCGTGGGACCCCTTGGGTTCTAACCTGTTGCCTAGATTTATGCAGCGGACTGCCTTTCTCCCAAAGTGATAAACCGG…AGGTTGGTTTCACT; site = the 11-nt donor. An outline of the steps:
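Two replicates each of selected and unselected plating were used in this pooled Escherichia coli screen of donor and donor-binding-loop pairs for the IS621 bridge recombinase. Selection was with IPTG (0.07 mM) and kanamycin. Counts of recombinant UMIs, amplified across the donor–target junction, were converted to CPM, averaged, scaled by control-derived factors and reported as log10(CPM+1).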
For “TTAGTCACATGGACCGGTTTTCCCGGTAATCCGTATTTGGG (site TTAGTCACTCC)”, the “recombinant UMI read abundance (log10)” value was determined as 0.0104.

Regarding “TTAGTCGCATGGACCGGTTTTCCCGGTAATCCGTATTTGCG (site ATAGTCGCTCG)”, the “recombinant UMI read abundance (log10)” value is 0.0346.

Regarding “TTAGTCGCATGGACCGGTTTTCCCGGTAATCCGTATTTGCG (site CTAGTCGCTCG)”, the “recombinant UMI read abundance (log10)” value turned out to be 0.00978.

“TTAGTCGCATGGACCGGTTTTCCCGGTAATCCGTATTTGCG (site GTAGTCGCTCG)”: the “recombinant UMI read abundance (log10)” value is 0.00638.

Regarding “TTAGTCGCATGGACCGGTTTTCCCGGTAATCCGTATTTGCG (site TTAGTCGCTCG)”, the “recombinant UMI read abundance (log10)” value came to 0.224.

In the case of “TTAGTTACATGGACCGGTTTTCCCGGTAATCCGTATTTGGC (site TTAGTTACTGC)”, the “recombinant UMI read abundance (log10)” value was determined as 0.857.

Consider “TTATCATCATGGACCGGTTTTCCCGGTAATCCGTATTTGCA (site TTATCATCTTG)”, for which the “recombinant UMI read abundance (log10)” value was determined as 1.53.

For “TTATCGTCATGGACCGGTTTTCCCGGTAATCCGTATTTGGC (site TTATCGTCTGC)”, the “recombinant UMI read abundance (log10)” value is 1.36.

With “TTATCTGCATGGACCGGTTTTCCCGGTAATCCGTATTTGAT (site TTATCTGCTAT)”, the “recombinant UMI read abundance (log10)” value is 0.557.

As to “TTATGCACATGGACCGGTTTTCCCGGTAATCCGTATTTGTA (site ATATGCACTTA)”, the “recombinant UMI read abundance (log10)” value turned out to be 0.0128.

For the sequence “TTATGCACATGGACCGGTTTTCCCGGTAATCCGTATTTGTA (site CTATGCACTTA)”, the “recombinant UMI read abundance (log10)” value is 0.34.

Turning to “TTATGCACATGGACCGGTTTTCCCGGTAATCCGTATTTGTA (site GTATGCACTTA)”, the “recombinant UMI read abundance (log10)” value was determined as 0.0305.

As to “TTATGCACATGGACCGGTTTTCCCGGTAATCCGTATTTGTA (site TTATGCACTTA)”, the “recombinant UMI read abundance (log10)” value came to 0.769.

On to “TTATTCCCATGGACCGGTTTTCCCGGTAATCCGTATTTGCA (site TTATTCCCTTG)”, for which the “recombinant UMI read abundance (log10)” value was found to be 0.

For the sequence “TTCAATGCATGGACCGGTTTTCCCGGTAATCCGTATTTGCA (site TTCAATGCTTG)”, the “recombinant UMI read abundance (log10)” value was 0.

As to “TTCAGAGCATGGACCGGTTTTCCCGGTAATCCGTATTTGCC (site TTCAGAGCTGG)”, the “recombinant UMI read abundance (log10)” value was determined as 0.

As for “TTCAGCTCATGGACCGGTTTTCCCGGTAATCCGTATTTGGT (site TTCAGCTCTAC)”, the “recombinant UMI read abundance (log10)” value was found to be 0.00826.

Regarding “TTCAGTGCATGGACCGGTTTTCCCGGTAATCCGTATTTGGC (site TTCAGTGCTGC)”, the “recombinant UMI read abundance (log10)” value turned out to be 0.

“TTCATACCATGGACCGGTTTTCCCGGTAATCCGTATTTGCC (site TTCATACCTGG)”: the “recombinant UMI read abundance (log10)” value came to 0.

As for “TTCCAGACATGGACCGGTTTTCCCGGTAATCCGTATTTGTA (site TTCCAGACTTA)”, the “recombinant UMI read abundance (log10)” value was found to be 0.13.

For the sequence “TTCCCGCCATGGACCGGTTTTCCCGGTAATCCGTATTTGTT (site TTCCCGCCTAA)”, the “recombinant UMI read abundance (log10)” value turned out to be 0.00311.

For the sequence “TTCCGCGCATGGACCGGTTTTCCCGGTAATCCGTATTTGCC (site TTCCGCGCTGG)”, the “recombinant UMI read abundance (log10)” value came to 0.632.

For “TTCCTAGCATGGACCGGTTTTCCCGGTAATCCGTATTTGAA (site TTCCTAGCTTT)”, the “recombinant UMI read abundance (log10)” value stood at 0.0135.

Take “TTCCTATCATGGACCGGTTTTCCCGGTAATCCGTATTTGCA (site TTCCTATCTTG)”: the “recombinant UMI read abundance (log10)” value amounted to 1.53.

For the sequence “TTCGAGCCATGGACCGGTTTTCCCGGTAATCCGTATTTGAC (site TTCGAGCCTGT)”, the “recombinant UMI read abundance (log10)” value worked out at 0.

As to “TTCGCGGCATGGACCGGTTTTCCCGGTAATCCGTATTTGCT (site TTAGCGGCTAG)”, the “recombinant UMI read abundance (log10)” value amounted to 0.33.

On to “TTCGCGGCATGGACCGGTTTTCCCGGTAATCCGTATTTGCT (site TTCGCGGCTAG)”, for which the “recombinant UMI read abundance (log10)” value came out at 0.587.

As for “TTCGCGGCATGGACCGGTTTTCCCGGTAATCCGTATTTGCT (site TTGGCGGCTAG)”, the “recombinant UMI read abundance (log10)” value is 0.00776.

Turning to “TTCGCGGCATGGACCGGTTTTCCCGGTAATCCGTATTTGCT (site TTTGCGGCTAG)”, the “recombinant UMI read abundance (log10)” value stood at 0.0106.

Consider “TTCGCTGCATGGACCGGTTTTCCCGGTAATCCGTATTTGTG (site TTAGCTGCTCA)”, for which the “recombinant UMI read abundance (log10)” value came out at 0.018.

Consider “TTCGCTGCATGGACCGGTTTTCCCGGTAATCCGTATTTGTG (site TTCGCTGCTCA)”, for which the “recombinant UMI read abundance (log10)” value came out at 0.0258.

As to “TTCGCTGCATGGACCGGTTTTCCCGGTAATCCGTATTTGTG (site TTGGCTGCTCA)”, the “recombinant UMI read abundance (log10)” value came out at 0.0131.

Turning to “TTCGCTGCATGGACCGGTTTTCCCGGTAATCCGTATTTGTG (site TTTGCTGCTCA)”, the “recombinant UMI read abundance (log10)” value amounted to 0.00847.

For the sequence “TTCGTAACATGGACCGGTTTTCCCGGTAATCCGTATTTGAA (site GCTCGGCCTCC)”, the “recombinant UMI read abundance (log10)” value worked out at 0.019.

As to “TTCTAGACATGGACCGGTTTTCCCGGTAATCCGTATTTGTT (site TTCTAGACTAA)”, the “recombinant UMI read abundance (log10)” value came out at 0.0133.

Regarding “TTCTATACATGGACCGGTTTTCCCGGTAATCCGTATTTGAC (site ATCTATACTGT)”, the “recombinant UMI read abundance (log10)” value turned out to be 0.

As for “TTCTATACATGGACCGGTTTTCCCGGTAATCCGTATTTGAC (site CTCTATACTGT)”, the “recombinant UMI read abundance (log10)” value was 0.

As to “TTCTATACATGGACCGGTTTTCCCGGTAATCCGTATTTGAC (site GTCTATACTGT)”, the “recombinant UMI read abundance (log10)” value was found to be 0.

As for “TTCTATACATGGACCGGTTTTCCCGGTAATCCGTATTTGAC (site TTCTATACTGT)”, the “recombinant UMI read abundance (log10)” value was determined as 0.00704.

On to “TTCTCCACATGGACCGGTTTTCCCGGTAATCCGTATTTGGA (site TTCTCCACTTC)”, for which the “recombinant UMI read abundance (log10)” value amounted to 0.00322.

With “TTCTCGACATGGACCGGTTTTCCCGGTAATCCGTATTTGTC (site TTCTCGACTGA)”, the “recombinant UMI read abundance (log10)” value came to 0.

Take “TTCTTAGCATGGACCGGTTTTCCCGGTAATCCGTATTTGTT (site TTCTTAGCTAA)”: the “recombinant UMI read abundance (log10)” value stood at 0.0119.

On to “TTGACCACATGGACCGGTTTTCCCGGTAATCCGTATTTGCC (site TTGACCACTGG)”, for which the “recombinant UMI read abundance (log10)” value is 1.79.

Take “TTGAGCGCATGGACCGGTTTTCCCGGTAATCCGTATTTGCC (site TTGAGCGCTGG)”: the “recombinant UMI read abundance (log10)” value is 1.9.

Turning to “TTGAGGCCATGGACCGGTTTTCCCGGTAATCCGTATTTGAC (site TTGAGGCCTGT)”, the “recombinant UMI read abundance (log10)” value came to 0.

With “TTGATAACATGGACCGGTTTTCCCGGTAATCCGTATTTGGG (site TTGATAACTCC)”, the “recombinant UMI read abundance (log10)” value was 0.00616.

As to “TTGCATACATGGACCGGTTTTCCCGGTAATCCGTATTTGGA (site TTGCATACTTC)”, the “recombinant UMI read abundance (log10)” value amounted to 0.121.

Take “TTGCGCACATGGACCGGTTTTCCCGGTAATCCGTATTTGTG (site TTGCGCACTCA)”: the “recombinant UMI read abundance (log10)” value amounted to 0.0258.

For the sequence “TTGGAGGCATGGACCGGTTTTCCCGGTAATCCGTATTTGTG (site ATGGAGGCTCA)”, the “recombinant UMI read abundance (log10)” value came to 0.342.

Turning to “TTGGAGGCATGGACCGGTTTTCCCGGTAATCCGTATTTGTG (site CTGGAGGCTCA)”, the “recombinant UMI read abundance (log10)” value was determined as 0.329.

For the sequence “TTGGAGGCATGGACCGGTTTTCCCGGTAATCCGTATTTGTG (site GTGGAGGCTCA)”, the “recombinant UMI read abundance (log10)” value worked out at 0.0131.

As to “TTGGAGGCATGGACCGGTTTTCCCGGTAATCCGTATTTGTG (site TTGGAGGCTCA)”, the “recombinant UMI read abundance (log10)” value came out at 0.791.

Take “TTGGGGCCATGGACCGGTTTTCCCGGTAATCCGTATTTGAA (site TTGGGGCCTTT)”: the “recombinant UMI read abundance (log10)” value amounted to 0.00375.

For “TTGGTCACATGGACCGGTTTTCCCGGTAATCCGTATTTGAA (site TTGGTCACTTT)”, the “recombinant UMI read abundance (log10)” value was determined as 0.29.

Consider “TTGGTCCCATGGACCGGTTTTCCCGGTAATCCGTATTTGAA (site TTGGTCCCTTT)”, for which the “recombinant UMI read abundance (log10)” value is 0.00683.

For “TTGGTGGCATGGACCGGTTTTCCCGGTAATCCGTATTTGGC (site TTGGTGGCTGC)”, the “recombinant UMI read abundance (log10)” value came out at 1.84.

As for “TTGTTGCCATGGACCGGTTTTCCCGGTAATCCGTATTTGGT (site TTGTTGCCTAC)”, the “recombinant UMI read abundance (log10)” value came to 0.0353.

With “TTGTTTGCATGGACCGGTTTTCCCGGTAATCCGTATTTGAG (site TTGTTTGCTCT)”, the “recombinant UMI read abundance (log10)” value is 0.442.

In the case of “TTTACACCATGGACCGGTTTTCCCGGTAATCCGTATTTGAC (site TATACACCTGT)”, the “recombinant UMI read abundance (log10)” value was 0.

As to “TTTACACCATGGACCGGTTTTCCCGGTAATCCGTATTTGAC (site TCTACACCTGT)”, the “recombinant UMI read abundance (log10)” value worked out at 0.

Turning to “TTTACACCATGGACCGGTTTTCCCGGTAATCCGTATTTGAC (site TGTACACCTGT)”, the “recombinant UMI read abundance (log10)” value was determined as 0.

Take “TTTACACCATGGACCGGTTTTCCCGGTAATCCGTATTTGAC (site TTTACACCTGT)”: the “recombinant UMI read abundance (log10)” value was 0.

Turning to “TTTACCCCATGGACCGGTTTTCCCGGTAATCCGTATTTGCT (site TTTACCCCTAG)”, the “recombinant UMI read abundance (log10)” value amounted to 0.0114.

“TTTACGGCATGGACCGGTTTTCCCGGTAATCCGTATTTGCT (site TTTACGGCTAG)”: the “recombinant UMI read abundance (log10)” value came to 0.234.

Take “TTTACGGCATGGACCGGTTTTCCCGGTAATCCGTATTTGCT (site TTTCCGGCTAG)”: the “recombinant UMI read abundance (log10)” value came to 0.00939.

With “TTTACGGCATGGACCGGTTTTCCCGGTAATCCGTATTTGCT (site TTTGCGGCTAG)”, the “recombinant UMI read abundance (log10)” value is 0.00519.

In the case of “TTTACGGCATGGACCGGTTTTCCCGGTAATCCGTATTTGCT (site TTTTCGGCTAG)”, the “recombinant UMI read abundance (log10)” value came out at 0.0523.

Turning to “TTTAGAACATGGACCGGTTTTCCCGGTAATCCGTATTTGGC (site ATTAGAACTGC)”, the “recombinant UMI read abundance (log10)” value worked out at 0.0159.

The values are drawn from the supplement of paper PMC11208160.
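Note: IS621 bridge recombinase in Escherichia coli cells against a fixed T5 target plasmid.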
